Earlier results as cited in patent publication US20110178105A1, “CLINICAL BENEFITS OF EICOSAPENTAENOIC ACID IN HUMANS” (E.I. DU PONT DE NEMOURS AND COMPANY, priority 2010, published 2011).

Conditions: human, in vivo; cited from earlier work

vitamin E
benefit in post-myocardial infarction patients: no benefit
